# Test results from the NIST ThermoML archive (doi:10.1021/je200350a).
# Numbers after ± are expanded uncertainties.
# Settings: 101.33 kPa, Liquid; for viscosity: Capillary tube (Ostwald / Ubbelohde) method
SMILES,mass density (293.15 K),viscosity (293.15 K),mass density (298.15 K),viscosity (298.15 K),mass density (303.15 K),viscosity (303.15 K),mass density (308.15 K),viscosity (308.15 K)
CCCCBr [1-bromobutane],1279.1 ± 1.5 kg/m3,0.6473 ± 0.0064 mPa·s,1272.2 ± 1.4 kg/m3,0.6096 ± 0.0061 mPa·s,1265.2 ± 1.4 kg/m3,0.5811 ± 0.0058 mPa·s,1257.2 ± 1.4 kg/m3,0.55 ± 0.0056 mPa·s
CC1CCCCC1 [methylcyclohexane],770.1 ± 1.2 kg/m3,0.7293 ± 0.0071 mPa·s,766.7 ± 1.2 kg/m3,0.6827 ± 0.0067 mPa·s,761.8 ± 1.2 kg/m3,0.6385 ± 0.0063 mPa·s,757.6 ± 1.2 kg/m3,0.5997 ± 0.006 mPa·s
O=[N+]([O-])c1ccccc1 [nitrobenzene],1202.2 ± 1.2 kg/m3,1.983 ± 0.018 mPa·s,1197.2 ± 1.2 kg/m3,1.809 ± 0.016 mPa·s,1191.5 ± 1.2 kg/m3,1.659 ± 0.015 mPa·s,1186.4 ± 1.2 kg/m3,1.529 ± 0.014 mPa·s
